Experimental data: PubChem BioAssay AID248 (DTP/NCI, 2004)
Several values for one entry are separate records, joined by “and”; a condition that tells them apart may be missing. Identical values can stand only once. Toxic doses and inconclusive results are not listed. Rule as the data show it: active = T/C of 150% or more; inactive = T/C below 125%.

System: L1210 leukemia ip in BDF1 mice, survival T/C
Assay: NCI In Vivo Anticancer Drug Screen. Data for tumor model L1210 Leukemia (intraperitoneal) in B6D2F1 (BDF1) mice
Conditions: endpoint: mean survival time, higher = longer survival
Procedure, shortened: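 Tumor was transplanted into mice, which were then dosed with test compound or vehicle alone. Survival was recorded for each group, and the treated figure was expressed relative to the control figure.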

[1] = dose: 100.0 mg/kg/injection, schedule: Q01DX001 (ip), vehicle: saline
[2] = dose: 200.0 mg/kg/injection, schedule: Q01DX001 (ip), vehicle: saline

Measured: T/C

CCC(/C=N/N=C(N)N)OC (configuration not stated)
inactive: dose: 2.0 mg/kg/injection, schedule: Q01DX Z (oral), vehicle: saline 103 % of control | dose: 4.0 mg/kg/injection, schedule: Q01DX Z (oral), vehicle: saline 101 % of control | dose: 8.0 mg/kg/injection, schedule: Q01DX Z (oral), vehicle: saline 106 % of control | dose: 16.0 mg/kg/injection, schedule: Q01DX Z (oral), vehicle: saline 100 % of control | dose: 32.0 mg/kg/injection, schedule: Q01DX Z (oral), vehicle: saline 110 % of control | dose: 64.0 mg/kg/injection, schedule: Q01DX Z (oral), vehicle: saline 100 % of control | dose: 128.0 mg/kg/injection, schedule: Q01DX Z (oral), vehicle: saline 104 % of control and 113 % of control | dose: 256.0 mg/kg/injection, schedule: Q01DX Z (oral), vehicle: saline 98 % of control and 115 % of control

CC(=O)OC1COC(n2cnc3c(=O)[nH]cnc32)C(OC(C)=O)C1OC(C)=O (configuration not stated)
inactive: dose: 50.0 mg/kg/injection, schedule: Q01DX001 (ip), vehicle: saline 97 % of control | [1] 97 % of control and 115 % of control and 101 % of control | [2] 86 % of control and 109 % of control and 103 % of control | dose: 400.0 mg/kg/injection, schedule: Q01DX001 (ip), vehicle: saline 95 % of control

O=C(NO)c1ccccc1
inactive: dose: 25.0 mg/kg/injection, schedule: Q03HX032 (ip), vehicle: saline 97 % of control | dose: 38.0 mg/kg/injection, schedule: Q03HX032 (ip), vehicle: saline 95 % of control | dose: 50.0 mg/kg/injection, schedule: Q01DX009 (ip), vehicle: Klucel (hydroxypropylcellulose) (HPC) 90 % of control | dose: 50.0 mg/kg/injection, schedule: Q01DX009 (ip), vehicle: saline with Tween-80 98 % of control | dose: 57.0 mg/kg/injection, schedule: Q01DX015 (ip), vehicle: saline 92 % of control | dose: 57.0 mg/kg/injection, schedule: Q03HX032 (ip), vehicle: saline 100 % of control | dose: 62.0 mg/kg/injection, schedule: Q03HX024 (ip), vehicle: saline 96 % of control | dose: 85.0 mg/kg/injection, schedule: Q01DX015 (ip), vehicle: saline 90 % of control | dose: 85.0 mg/kg/injection, schedule: Q03HX032 (ip), vehicle: saline 98 % of control and 100 % of control | [1] 95 % of control | dose: 100.0 mg/kg/injection, schedule: Q01DX009 (ip), vehicle: Klucel (hydroxypropylcellulose) (HPC) 97 % of control and 113 % of control | dose: 100.0 mg/kg/injection, schedule: Q01DX009 (ip), vehicle: acetone 98 % of control | dose: 100.0 mg/kg/injection, schedule: Q01DX009 (ip), vehicle: saline with Tween-80 96 % of control | dose: 100.0 mg/kg/injection, schedule: Q04DX003 (ip), vehicle: saline 103 % of control | dose: 125.0 mg/kg/injection, schedule: Q03HX024 (ip), vehicle: saline 91 % of control | dose: 130.0 mg/kg/injection, schedule: Q01DX015 (ip), vehicle: saline 100 % of control | dose: 130.0 mg/kg/injection, schedule: Q03HX032 (ip), vehicle: saline 98 % of control | dose: 177.0 mg/kg/injection, schedule: Q01DX009 (ip), vehicle: saline 100 % of control | dose: 178.0 mg/kg/injection, schedule: Q01DX009 (ip), vehicle: saline with Tween-80 110 % of control | [2] 92 % of control | dose: 200.0 mg/kg/injection, schedule: Q01DX009 (ip), vehicle: Klucel (hydroxypropylcellulose) (HPC) 115 % of control and 124 % of control | dose: 200.0 mg/kg/injection, schedule: Q01DX009 (ip), vehicle: acetone 98 % of control | dose: 200.0 mg/kg/injection, schedule: Q01DX009 (ip), vehicle: saline with Tween-80 112 % of control | dose: 200.0 mg/kg/injection, schedule: Q01DX015 (ip), vehicle: saline 97 % of control and 113 % of control | dose: 200.0 mg/kg/injection, schedule: Q04DX003 (ip), vehicle: saline 108 % of control | dose: 264.0 mg/kg/injection, schedule: Q01DX009 (ip), vehicle: acetone 120 % of control | dose: 264.0 mg/kg/injection, schedule: Q01DX009 (ip), vehicle: saline 123 % of control | dose: 264.0 mg/kg/injection, schedule: Q04DX003 (ip), vehicle: saline 105 % of control and 112 % of control | dose: 266.0 mg/kg/injection, schedule: Q01DX009 (ip), vehicle: saline with Tween-80 113 % of control | dose: 300.0 mg/kg/injection, schedule: Q01DX015 (ip), vehicle: saline 121 % of control | dose: 400.0 mg/kg/injection, schedule: Q04DX003 (ip), vehicle: saline 117 % of control and 91 % of control
active: dose: 400.0 mg/kg/injection, schedule: Q01DX009 (ip), vehicle: Klucel (hydroxypropylcellulose) (HPC) 168 % of control | dose: 400.0 mg/kg/injection, schedule: Q01DX009 (ip), vehicle: acetone 153 % of control | dose: 450.0 mg/kg/injection, schedule: Q01DX015 (ip), vehicle: saline 153 % of control | dose: 600.0 mg/kg/injection, schedule: Q01DX009 (ip), vehicle: saline 159 % of control
